Consider 3 compounds from ChEMBL document CHEMBL5252616, “Design, synthesis and biological evaluation of the tumor hypoxia-activated PROTACs bearing caged CRBN E3 ligase ligands” (Bioorg Med Chem, 2023).

Data set [1] has as its system PC-9. Kind of data set: Induction of apoptosis in human PC-9 cells assessed as live cells at 0.1 uM incubated for 72 hrs under normoxia condition by Annexin V-FITC/ PI staining based flow cytometry (Rvb= 94.53%). The data set is classed as functional. On the technique in general: Flow cytometry measures light scatter and fluorescence of single cells or particles in a stream.

Data set [2] concerns PC-9. Kind of data set: Induction of apoptosis in human PC-9 cells assessed as apoptotic cells at 0.1 uM incubated for 72 hrs under normoxia condition by Annexin V-FITC/ PI staining based flow cytometry (Rvb= 4.54%). The data set is classed as functional.
Data set [3] can be described thus: Prodrug conversion in hypoxia condition assessed as nitroreductase mediated drug degradation by measuring parent compound remaining in presence of NADPH as cofactor at 1 uM and measured after 60 mins by UPLC-MS/MS analysis. The data set is classed as ADME. Particulars: isolated protein, 1 h.
Data set [4] relates to PC-9. Kind of data set: Antitumor activity against human PC-9 cells assessed as inhibition of cell viability incubated for 72 hrs under normoxia condition by CCK8 assay. The data set is classed as functional, cell-based. Particulars: PC-9, 72 h.
The test system of data set [5] is PC-9. Kind of data set: Antitumor activity against human PC-9 cells assessed as inhibition of cell viability incubated for 72 hrs under hypoxia condition by CCK8 assay. The note with it: PC-9, 72 h. The data set is classed as functional, cell-based. For orientation: Formazan colour is commonly taken as a measure of viable cells.
Data set [6] concerns Protein cereblon/Epidermal growth factor receptor (Homo sapiens), P00533+Q96SW2 [UNDEFINED MUTATION]. Kind of data set: Protac activity at CRBN/EGFR deletion19 mutant in human PC-9 cells assessed as induction of EGFR degradation at 0.001 to 1 uM and measured after 24 hrs under hypoxia condition by Western blot analysis. The data set is classed as cell-based. The note with it: dose 0.001-1 µM. A general note: A western blot detects proteins with antibodies after separation by electrophoresis.

The test system of data set [7] is PC-9. Kind of data set: Induction of apoptosis in human PC-9 cells assessed as live cells at 0.1 uM incubated for 72 hrs under hypoxia condition by Annexin V-FITC/ PI staining based flow cytometry (Rvb= 88.19%). The data set is classed as functional.
Data set [8] concerns PC-9. Kind of data set: Induction of apoptosis in human PC-9 cells assessed as late apoptotic cells at 0.1 uM incubated for 72 hrs under hypoxia condition by Annexin V-FITC/ PI staining based flow cytometry (Rvb= 4.73%). The data set is classed as functional.
In data set [9] the test system is PC-9. Kind of data set: Induction of apoptosis in human PC-9 cells assessed as late apoptotic cells at 0.1 uM incubated for 72 hrs under normoxia condition by Annexin V-FITC/ PI staining based flow cytometry (Rvb= 3.72%). The data set is classed as functional.
Data set [10] concerns PC-9. Kind of data set: Induction of apoptosis in human PC-9 cells assessed as early apoptotic cells at 0.1 uM incubated for 72 hrs under normoxia condition by Annexin V-FITC/ PI staining based flow cytometry (Rvb= 0.82%). The data set is classed as functional.
The nature of data set [11]: Prodrug conversion in hypoxia condition assessed as nitroreductase mediated active drug N-(4-((3-chloro-4-fluorophenyl)amino)-7-(((S)-tetrahydrofuran-3-yl)oxy)quinazolin-6-yl)-3-(2-(2-(2-((2-(2,6-dioxopiperidin-3-yl)-1,3-dioxoisoindolin-4-yl)oxy)ethoxy)ethoxy)ethoxy)propanamide formation in presence of NADPH as cofactor at 1 uM and measured after 60 mins by UPLC-MS/MS analysis. The data set is classed as ADME. The note with it: isolated protein, 1 h.

Data set [12] has as its system PC-9. Kind of data set: Induction of apoptosis in human PC-9 cells assessed as apoptotic cells at 0.1 uM incubated for 72 hrs under hypoxia condition by Annexin V-FITC/ PI staining based flow cytometry (Rvb= 9%). The data set is classed as functional.
For data set [13], the system named is PC-9. Kind of data set: Induction of apoptosis in human PC-9 cells assessed as necrotic cells at 0.1 uM incubated for 72 hrs under hypoxia condition by Annexin V-FITC/ PI staining based flow cytometry (Rvb= 2.81%). The data set is classed as functional.
Data set [14] deals with PC-9. Kind of data set: Induction of apoptosis in human PC-9 cells assessed as early apoptotic cells at 0.1 uM incubated for 72 hrs under hypoxia condition by Annexin V-FITC/ PI staining based flow cytometry (Rvb= 4.27%). The data set is classed as functional.
Data set [15] has as its system PC-9. Kind of data set: Inhibition of cell migration in human PC-9 cells at 100 nM incubated for 24 hrs under hypoxia condition by imaging analysis. The data set is classed as functional, cell-based.
Data set [16] has as its system Protein cereblon/Epidermal growth factor receptor (Homo sapiens), P00533+Q96SW2 [UNDEFINED MUTATION]. Kind of data set: Protac activity at CRBN/EGFR deletion19 mutant in human PC-9 cells assessed as induction of EGFR degradation at 0.001 to 1 uM and measured after 24 hrs under normoxia condition by Western blot analysis. The data set is classed as cell-based. The note with it: dose 0.001-1 µM.

Data set [17] relates to PC-9. Kind of data set: Inhibition of cell migration in human PC-9 cells at 100 nM incubated for 24 hrs under normoxia condition by imaging analysis. The data set is classed as functional, cell-based.
Data set [18] deals with PC-9. Kind of data set: Induction of apoptosis in human PC-9 cells assessed as necrotic cells at 0.1 uM incubated for 72 hrs under normoxia condition by Annexin V-FITC/ PI staining based flow cytometry (Rvb= 0.93%). The data set is classed as functional.
The subject of data set [19] is Protein cereblon/Epidermal growth factor receptor (Homo sapiens), P00533+Q96SW2 [UNDEFINED MUTATION]. Kind of data set: Protac activity at CRBN/EGFR deletion19 mutant in human PC-9 cells assessed as induction of EGFR degradation at 0.5 to 1 uM and measured after 24 hrs under hypoxia condition by Western blot analysis. The data set is classed as cell-based. Particulars: dose 0.5-1 µM.

Data set [20] has the same test system. Kind of data set: Protac activity at CRBN/EGFR deletion19 mutant in human PC-9 cells assessed as induction of EGFR degradation at 0.001 to 0.1 uM and measured after 24 hrs under hypoxia condition by Western blot analysis. The data set is classed as cell-based. Particulars: dose 0.001-0.1 µM.
Data set [21] has the same test system. Kind of data set: Protac activity at CRBN/EGFR deletion19 mutant in human PC-9 cells assessed as induction of EGFR degradation at 0.001 to 0.1 uM and measured after 24 hrs under normoxia condition by Western blot analysis. The data set is classed as cell-based. Particulars: dose 0.001-0.1 µM.
The test system is the same in data set [22]. Kind of data set: Protac activity at CRBN/EGFR deletion19 mutant in human PC-9 cells assessed as induction of EGFR degradation at 0.5 to 1 uM and measured after 24 hrs under normoxia condition by Western blot analysis. The data set is classed as cell-based. Particulars: dose 0.5-1 µM.
Data set [23] has the same test system. Kind of data set: Protac activity at CRBN/EGFR deletion19 mutant in human PC-9 cells assessed as induction of EGFR degradation at 100 nM and measured after 24 hrs under normoxia condition by Western blot analysis. The data set is classed as cell-based.

The source made the active and inactive calls. The calls are words filed in the database; no cut-off is given here.

Protein cereblon/Epidermal growth factor receptor (Homo sapiens), P00533+Q96SW2 [UNDEFINED MUTATION], sequence (P00533 whole entry, looked up, stated change not applied): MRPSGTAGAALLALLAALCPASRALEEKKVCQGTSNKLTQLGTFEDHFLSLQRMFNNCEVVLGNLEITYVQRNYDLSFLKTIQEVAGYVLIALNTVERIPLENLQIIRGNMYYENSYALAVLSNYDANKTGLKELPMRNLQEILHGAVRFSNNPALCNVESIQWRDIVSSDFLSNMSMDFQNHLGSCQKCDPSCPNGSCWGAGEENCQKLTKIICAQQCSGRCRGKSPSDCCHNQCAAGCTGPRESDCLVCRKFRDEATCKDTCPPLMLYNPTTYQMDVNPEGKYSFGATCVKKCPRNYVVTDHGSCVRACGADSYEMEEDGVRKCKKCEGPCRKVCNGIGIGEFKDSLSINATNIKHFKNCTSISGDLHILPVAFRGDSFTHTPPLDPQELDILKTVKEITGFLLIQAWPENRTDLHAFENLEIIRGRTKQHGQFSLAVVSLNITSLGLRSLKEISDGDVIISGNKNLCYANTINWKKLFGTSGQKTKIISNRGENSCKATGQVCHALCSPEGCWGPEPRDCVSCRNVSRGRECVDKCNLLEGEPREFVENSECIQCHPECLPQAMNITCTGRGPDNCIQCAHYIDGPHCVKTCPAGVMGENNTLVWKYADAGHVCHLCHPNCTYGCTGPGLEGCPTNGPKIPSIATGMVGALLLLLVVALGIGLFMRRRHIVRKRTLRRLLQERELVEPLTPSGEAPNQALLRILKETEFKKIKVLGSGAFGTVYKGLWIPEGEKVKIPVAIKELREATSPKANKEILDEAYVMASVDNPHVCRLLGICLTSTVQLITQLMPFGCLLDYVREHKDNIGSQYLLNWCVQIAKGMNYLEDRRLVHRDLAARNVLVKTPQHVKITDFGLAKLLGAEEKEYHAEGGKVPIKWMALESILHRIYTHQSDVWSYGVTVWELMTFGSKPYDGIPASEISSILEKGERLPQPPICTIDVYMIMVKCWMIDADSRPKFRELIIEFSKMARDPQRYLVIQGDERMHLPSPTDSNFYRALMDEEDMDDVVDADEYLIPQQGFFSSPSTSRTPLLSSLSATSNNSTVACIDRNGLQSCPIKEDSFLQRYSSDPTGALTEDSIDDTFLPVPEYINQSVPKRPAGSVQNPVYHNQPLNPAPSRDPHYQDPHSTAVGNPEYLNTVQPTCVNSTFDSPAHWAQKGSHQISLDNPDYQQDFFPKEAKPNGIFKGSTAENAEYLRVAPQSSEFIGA
Protein cereblon/Epidermal growth factor receptor (Homo sapiens), P00533+Q96SW2 [UNDEFINED MUTATION], sequence (Q96SW2 whole entry, looked up, stated change not applied): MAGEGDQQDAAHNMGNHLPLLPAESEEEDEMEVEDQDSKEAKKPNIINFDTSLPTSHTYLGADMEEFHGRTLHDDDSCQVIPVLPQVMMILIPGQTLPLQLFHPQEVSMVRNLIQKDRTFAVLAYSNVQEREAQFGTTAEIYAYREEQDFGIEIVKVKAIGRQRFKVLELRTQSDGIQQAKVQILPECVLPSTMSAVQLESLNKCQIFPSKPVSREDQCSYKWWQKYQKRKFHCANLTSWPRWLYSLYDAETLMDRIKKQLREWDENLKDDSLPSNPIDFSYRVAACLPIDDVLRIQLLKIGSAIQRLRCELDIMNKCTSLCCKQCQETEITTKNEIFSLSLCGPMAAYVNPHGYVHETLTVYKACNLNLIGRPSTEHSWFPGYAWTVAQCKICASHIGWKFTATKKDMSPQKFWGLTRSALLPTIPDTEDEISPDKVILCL

As usually defined, the IC50 is the midpoint of a concentration-inhibition curve. In the case of `Cn1c(CN2C(=O)CCC(N3C(=O)c4cccc(OCCOCCOCCOCCC(=O)Nc5cc6c(Nc7ccc(F)c(Cl)c7)ncnc6cc5O[C@H]5CCOC5)c4C3=O)C2=O)cnc1[N+](=O)[O-]` (stereo partly specified), the Activity in data set [1] turned out to be 75.71%; in data set [2] it was 22.11%; in data set [7], 44.8%; in data set [8] it was 17.28%; in data set [9], 11.21%; in data set [10], 10.9%. The Activity in data set [12] is recorded as 52.36%; in data set [13], 2.83%; in data set [14], 35.08%; in data set [18], 2.18%. Besides, the Stability entry in [3] was “Unstable”. In addition, the IC50 was 1100 nM in data set [4] and 610 nM in data set [5]. Further, the outcome in data set [6] was Active. Further, the Drug metabolism entry in data set [11] is “Metabolite_Detected”. Moreover, the inhibition entry in [15] is “Active”. In addition, the result in data set [16] was inactive. Besides, the inhibition result in [17] was “inactive”.

As to `O=C(CCOCCOCCOCCOc1cccc2c1C(=O)N(C1CCC(=O)N(Cc3ccc([N+](=O)[O-])cc3)C1=O)C2=O)Nc1cc2c(Nc3ccc(F)c(Cl)c3)ncnc2cc1O[C@H]1CCOC1` (stereo partly specified), the Activity in data set [1] turned out to be 92.63%; in data set [2] it was 6.26%; in [7], 80.78%; in data set [8] it was 7.96%; in [9], 2.98%; in [10] it was 3.28%. Besides, the Activity in [12] is 17.33%; in data set [13] it was 1.89%; in data set [14], 9.37%; in data set [18], 1.1%. The Stability result in [3] is “Unstable”. Also, the half-inhibitory concentration (IC50) in [4] was found to be 1920 nM; in [5], 1090 nM. Further, the result in data set [19], in data set [20] and in data set [22] was Active. Further, the Drug metabolism entry in data set [11] is on record as “Metabolite_Detected”. The inhibition result in [15] is “Active”. Further, in data set [21], the outcome was inactive. Also, the inhibition entry in data set [17] was “inactive”.

With `O=C1CCC(N2C(=O)c3cccc(OCCOCCOCCOCCC(=O)Nc4cc5c(Nc6ccc(F)c(Cl)c6)ncnc5cc4O[C@H]4CCOC4)c3C2=O)C(=O)N1` (stereo partly specified), the half-inhibitory concentration (IC50) in data set [4] and in [5] was 1300 nM throughout. Besides, the outcome in data set [23] was Active.
